The text below walks through data of ChEMBL document CHEMBL5649169 (ChemMedChem, 2018).

Assay [1] deals with Calcyclin-binding protein (Homo sapiens) (UniProt Q9HB71).
Assay [2] concerns the target 10 kDa heat shock protein, mitochondrial (Homo sapiens) (UniProt P61604).
The target in assay [3] is Matrin-3 (Homo sapiens) (UniProt P43243).
Assay [4] concerns the target DNA mismatch repair protein Msh6 (Homo sapiens) (UniProt P52701).
For assay [5], the species on record is Homo sapiens.
The target in assay [6] is Elongation factor Tu, mitochondrial (Homo sapiens) (UniProt P49411).
In assay [7] the target is Exportin-1 (Homo sapiens) (UniProt O14980).
The target in assay [8] is Conserved oligomeric Golgi complex subunit 5 (Homo sapiens) (UniProt Q9UP83).
For assay [9], the target named is Small ribosomal subunit protein RACK1 (Homo sapiens) (UniProt P63244).
The target in assay [10] is Macrophage-stimulating protein receptor (Homo sapiens) (UniProt Q04912).
Assay [11] addresses Programmed cell death protein 10 (Homo sapiens) (UniProt Q9BUL8).
In assay [12] the target is Pyruvate dehydrogenase protein X component, mitochondrial (Homo sapiens) (UniProt O00330).
The target in assay [13] is Secretory carrier-associated membrane protein 2 (Homo sapiens) (UniProt O15127).
The target in assay [14] is Antigen peptide transporter 1 (Homo sapiens) (UniProt Q03518).
Assay [15] has as its target Zinc finger protein with KRAB and SCAN domains 2 (Homo sapiens) (UniProt Q63HK3).
Assay [16] addresses ALK tyrosine kinase receptor (Homo sapiens) (UniProt Q9UM73).
Assay [17] addresses Calcium-binding and coiled-coil domain-containing protein 2 (Homo sapiens) (UniProt Q13137).
For assay [18], the target named is Dual specificity protein kinase CLK4 (Homo sapiens) (UniProt Q9HAZ1).
The target in assay [19] is Cleavage and polyadenylation specificity factor subunit 1 (Homo sapiens) (UniProt Q10570).
Sequence of Cleavage and polyadenylation specificity factor subunit 1 (Homo sapiens) (Q10570 whole entry): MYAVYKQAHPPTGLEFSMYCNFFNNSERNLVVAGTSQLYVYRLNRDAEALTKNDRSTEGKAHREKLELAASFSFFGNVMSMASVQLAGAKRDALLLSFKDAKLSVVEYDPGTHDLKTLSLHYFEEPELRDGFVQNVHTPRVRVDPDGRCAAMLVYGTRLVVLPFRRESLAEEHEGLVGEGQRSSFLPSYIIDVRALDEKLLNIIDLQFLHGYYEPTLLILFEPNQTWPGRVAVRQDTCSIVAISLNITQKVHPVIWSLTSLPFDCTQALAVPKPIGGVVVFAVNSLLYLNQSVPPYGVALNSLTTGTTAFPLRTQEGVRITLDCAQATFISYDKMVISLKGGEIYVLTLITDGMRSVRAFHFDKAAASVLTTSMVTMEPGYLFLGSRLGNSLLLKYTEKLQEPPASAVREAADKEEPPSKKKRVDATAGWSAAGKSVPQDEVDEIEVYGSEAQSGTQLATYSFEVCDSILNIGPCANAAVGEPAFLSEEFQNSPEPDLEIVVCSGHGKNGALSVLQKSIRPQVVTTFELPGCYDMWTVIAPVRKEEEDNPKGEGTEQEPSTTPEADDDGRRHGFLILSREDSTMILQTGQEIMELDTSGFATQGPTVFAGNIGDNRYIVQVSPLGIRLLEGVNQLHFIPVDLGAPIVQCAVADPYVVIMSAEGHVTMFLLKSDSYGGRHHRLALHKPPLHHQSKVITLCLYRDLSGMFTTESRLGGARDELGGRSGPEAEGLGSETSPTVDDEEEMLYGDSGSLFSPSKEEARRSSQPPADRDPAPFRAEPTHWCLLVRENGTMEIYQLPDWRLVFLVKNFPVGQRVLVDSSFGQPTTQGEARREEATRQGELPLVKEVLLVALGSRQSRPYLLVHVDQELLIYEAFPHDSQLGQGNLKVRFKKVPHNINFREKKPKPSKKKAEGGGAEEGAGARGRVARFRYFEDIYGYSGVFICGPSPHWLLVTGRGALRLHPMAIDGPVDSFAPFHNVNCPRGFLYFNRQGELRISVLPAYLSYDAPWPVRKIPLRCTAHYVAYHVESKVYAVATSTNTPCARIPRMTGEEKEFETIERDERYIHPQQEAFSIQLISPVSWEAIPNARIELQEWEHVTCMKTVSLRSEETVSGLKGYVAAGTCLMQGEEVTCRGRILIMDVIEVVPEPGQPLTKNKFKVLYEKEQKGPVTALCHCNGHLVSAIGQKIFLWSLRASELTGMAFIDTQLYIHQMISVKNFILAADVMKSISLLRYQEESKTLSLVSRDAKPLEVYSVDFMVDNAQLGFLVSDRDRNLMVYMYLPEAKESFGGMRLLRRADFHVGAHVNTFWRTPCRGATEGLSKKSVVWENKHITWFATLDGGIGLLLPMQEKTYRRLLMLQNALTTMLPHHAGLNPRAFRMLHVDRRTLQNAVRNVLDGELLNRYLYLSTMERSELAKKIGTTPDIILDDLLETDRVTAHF
The target of assay [20] is Rootletin (Homo sapiens) (UniProt Q5TZA2).
Assay [21] addresses ATP-dependent RNA helicase DHX29 (Homo sapiens) (UniProt Q7Z478).
The target in assay [22] is Mitotic deacetylase-associated SANT domain protein (Homo sapiens) (UniProt Q6PJG2).
Assay [23] addresses General transcription factor IIF subunit 2 (Homo sapiens) (UniProt P13984).
For assay [24], the species on record is Homo sapiens. The source holds these as a separate data set.
Assay [25] concerns the target Inositol 1,4,5-trisphosphate-gated calcium channel ITPR1 (Homo sapiens) (UniProt Q14643).
For assay [26], the target named is WASH complex subunit 4 (Homo sapiens) (UniProt Q2M389).
The target of assay [27] is Small ribosomal subunit protein mS34 (Homo sapiens) (UniProt P82930).
The target of assay [28] is Protein kinase C and casein kinase substrate in neurons protein 2 (Homo sapiens) (UniProt Q9UNF0).
For assay [29], the species on record is Homo sapiens. The source holds these as a separate data set.
In assay [30] the target is Phosphatidylinositol 4,5-bisphosphate 3-kinase catalytic subunit beta isoform (Homo sapiens) (UniProt P42338).
Sequence of Phosphatidylinositol 4,5-bisphosphate 3-kinase catalytic subunit beta isoform (Homo sapiens) (P42338 whole entry, looked up, canonical isoform): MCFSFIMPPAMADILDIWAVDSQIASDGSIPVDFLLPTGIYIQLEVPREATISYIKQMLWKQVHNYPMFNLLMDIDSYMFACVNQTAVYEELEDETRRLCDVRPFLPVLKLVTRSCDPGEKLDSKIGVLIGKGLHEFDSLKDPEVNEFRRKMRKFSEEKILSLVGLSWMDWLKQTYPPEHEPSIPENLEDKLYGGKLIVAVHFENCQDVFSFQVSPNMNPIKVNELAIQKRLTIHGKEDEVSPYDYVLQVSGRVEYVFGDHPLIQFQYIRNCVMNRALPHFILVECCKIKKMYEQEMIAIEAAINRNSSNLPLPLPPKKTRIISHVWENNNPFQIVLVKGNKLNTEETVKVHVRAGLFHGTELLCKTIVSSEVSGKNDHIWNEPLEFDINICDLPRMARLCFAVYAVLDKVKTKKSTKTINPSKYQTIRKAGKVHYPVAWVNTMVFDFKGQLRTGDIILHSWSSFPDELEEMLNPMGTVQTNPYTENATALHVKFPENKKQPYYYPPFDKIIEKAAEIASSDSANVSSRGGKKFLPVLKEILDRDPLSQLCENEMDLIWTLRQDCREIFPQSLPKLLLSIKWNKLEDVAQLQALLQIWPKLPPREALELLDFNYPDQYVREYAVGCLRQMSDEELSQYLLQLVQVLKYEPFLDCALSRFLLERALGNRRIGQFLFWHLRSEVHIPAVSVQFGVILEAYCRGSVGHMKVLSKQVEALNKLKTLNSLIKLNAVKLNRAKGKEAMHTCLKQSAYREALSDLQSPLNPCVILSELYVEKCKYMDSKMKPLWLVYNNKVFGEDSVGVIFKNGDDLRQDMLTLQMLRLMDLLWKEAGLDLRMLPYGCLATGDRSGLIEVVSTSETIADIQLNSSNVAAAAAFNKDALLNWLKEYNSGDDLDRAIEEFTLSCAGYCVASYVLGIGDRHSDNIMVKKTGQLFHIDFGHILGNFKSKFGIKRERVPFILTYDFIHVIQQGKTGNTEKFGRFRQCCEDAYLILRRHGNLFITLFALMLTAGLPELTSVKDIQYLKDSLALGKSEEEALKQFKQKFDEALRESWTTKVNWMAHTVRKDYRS
Assay [31] has as its target Serine/threonine-protein kinase pim-2 (Homo sapiens) (UniProt Q9P1W9).
Assay [32] has as its target Pleckstrin homology domain-containing family G member 3 (Homo sapiens) (UniProt A1L390).
The target in assay [33] is Mismatch repair endonuclease PMS2 (Homo sapiens) (UniProt P54278).
Sequence of Mismatch repair endonuclease PMS2 (Homo sapiens) (P54278 whole entry): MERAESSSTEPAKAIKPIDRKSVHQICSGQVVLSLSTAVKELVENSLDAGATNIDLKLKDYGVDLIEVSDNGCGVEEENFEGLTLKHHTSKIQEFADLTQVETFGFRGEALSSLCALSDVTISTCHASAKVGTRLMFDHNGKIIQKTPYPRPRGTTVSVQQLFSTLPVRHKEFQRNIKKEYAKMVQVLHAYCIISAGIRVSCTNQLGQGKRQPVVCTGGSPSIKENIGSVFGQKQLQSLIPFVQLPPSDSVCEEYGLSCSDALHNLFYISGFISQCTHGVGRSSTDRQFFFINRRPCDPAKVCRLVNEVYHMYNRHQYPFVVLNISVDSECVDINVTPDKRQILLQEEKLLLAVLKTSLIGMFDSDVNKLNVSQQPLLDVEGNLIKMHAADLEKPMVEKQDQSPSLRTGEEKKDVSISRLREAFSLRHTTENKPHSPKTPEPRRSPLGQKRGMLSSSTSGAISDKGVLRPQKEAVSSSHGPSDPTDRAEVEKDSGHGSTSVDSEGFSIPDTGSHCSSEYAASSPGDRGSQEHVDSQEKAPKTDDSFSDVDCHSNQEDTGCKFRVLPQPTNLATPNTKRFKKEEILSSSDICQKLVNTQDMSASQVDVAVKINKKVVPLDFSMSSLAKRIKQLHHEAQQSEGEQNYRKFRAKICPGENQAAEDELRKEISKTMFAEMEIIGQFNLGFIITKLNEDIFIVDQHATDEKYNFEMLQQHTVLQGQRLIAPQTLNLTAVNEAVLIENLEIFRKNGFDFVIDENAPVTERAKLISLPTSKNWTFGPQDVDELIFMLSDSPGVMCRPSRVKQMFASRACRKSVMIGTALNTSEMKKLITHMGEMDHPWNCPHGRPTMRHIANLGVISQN
Assay [34] is filed under the species Homo sapiens. The source holds these as a separate data set.
The target of assay [35] is Protein kinase C zeta type (Homo sapiens) (UniProt Q05513).
Assay [36] is filed under the species Homo sapiens. This is another data set of the same source.
Assay [37] has as its target Ribosomal protein S6 kinase beta-1 (Homo sapiens) (UniProt P23443).
Assay [38] concerns the target Ras suppressor protein 1 (Homo sapiens) (UniProt Q15404).
Assay [39] deals with 45 kDa calcium-binding protein (Homo sapiens) (UniProt Q9BRK5).
Sequence of 45 kDa calcium-binding protein (Homo sapiens) (Q9BRK5 whole entry): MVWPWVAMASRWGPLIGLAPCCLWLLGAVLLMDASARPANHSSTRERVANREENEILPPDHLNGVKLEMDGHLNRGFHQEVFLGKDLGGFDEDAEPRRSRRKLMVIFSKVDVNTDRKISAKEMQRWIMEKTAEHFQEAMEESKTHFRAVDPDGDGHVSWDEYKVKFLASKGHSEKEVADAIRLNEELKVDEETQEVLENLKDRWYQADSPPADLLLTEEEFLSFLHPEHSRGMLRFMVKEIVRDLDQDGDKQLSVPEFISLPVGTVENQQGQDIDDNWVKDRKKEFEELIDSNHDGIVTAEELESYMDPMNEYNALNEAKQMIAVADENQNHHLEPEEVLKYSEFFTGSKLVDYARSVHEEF
The target of assay [40] is Paired amphipathic helix protein Sin3a (Homo sapiens) (UniProt Q96ST3).
Assay [41] has as its target Serine/threonine-protein phosphatase 4 regulatory subunit 3A (Homo sapiens) (UniProt Q6IN85).
Assay [42] deals with Sorting nexin-9 (Homo sapiens) (UniProt Q9Y5X1).
Assay [43] has as its target SPATS2-like protein (Homo sapiens) (UniProt Q9NUQ6).
The target in assay [44] is Dual specificity testis-specific protein kinase 1 (Homo sapiens) (UniProt Q15569).
For assay [45], the target named is Y-box-binding protein 3 (Homo sapiens) (UniProt P16989).
The target of assay [46] is Protein YIF1A (Homo sapiens) (UniProt O95070).
Sequence of Protein YIF1A (Homo sapiens) (O95070 whole entry, the tested form may be a part): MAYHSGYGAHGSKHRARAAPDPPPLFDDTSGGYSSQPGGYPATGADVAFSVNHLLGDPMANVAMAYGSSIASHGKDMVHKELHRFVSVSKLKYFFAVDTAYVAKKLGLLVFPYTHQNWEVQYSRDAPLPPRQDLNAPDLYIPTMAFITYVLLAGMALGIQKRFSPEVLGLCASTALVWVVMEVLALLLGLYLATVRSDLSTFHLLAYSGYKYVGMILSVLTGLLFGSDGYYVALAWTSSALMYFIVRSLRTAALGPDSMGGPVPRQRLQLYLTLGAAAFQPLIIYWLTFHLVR
The target of assay [47] is YTH domain-containing family protein 2 (Homo sapiens) (UniProt Q9Y5A9).
The target in assay [48] is Putative uncharacterized protein ZNF436-AS1 (Homo sapiens) (UniProt Q8NC38).

SMILES strings stand for the structures.
Also: assay method not described here.

Sequence of Programmed cell death protein 10 (Homo sapiens) (Q9BUL8 whole entry): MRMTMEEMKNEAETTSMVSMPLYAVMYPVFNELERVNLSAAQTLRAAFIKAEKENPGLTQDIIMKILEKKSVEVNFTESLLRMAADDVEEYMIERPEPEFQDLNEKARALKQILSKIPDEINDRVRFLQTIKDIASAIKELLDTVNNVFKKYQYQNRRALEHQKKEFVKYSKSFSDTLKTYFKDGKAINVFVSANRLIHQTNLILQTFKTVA
Sequence of General transcription factor IIF subunit 2 (Homo sapiens) (P13984 whole entry): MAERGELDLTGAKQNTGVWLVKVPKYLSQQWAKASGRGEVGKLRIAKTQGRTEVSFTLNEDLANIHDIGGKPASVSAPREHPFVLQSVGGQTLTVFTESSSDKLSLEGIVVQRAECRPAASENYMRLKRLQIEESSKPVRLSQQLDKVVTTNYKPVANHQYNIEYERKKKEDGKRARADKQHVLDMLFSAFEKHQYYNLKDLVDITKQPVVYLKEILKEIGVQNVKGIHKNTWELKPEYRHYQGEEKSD
Sequence of Calcium-binding and coiled-coil domain-containing protein 2 (Homo sapiens) (Q13137 whole entry, the tested form may be a part): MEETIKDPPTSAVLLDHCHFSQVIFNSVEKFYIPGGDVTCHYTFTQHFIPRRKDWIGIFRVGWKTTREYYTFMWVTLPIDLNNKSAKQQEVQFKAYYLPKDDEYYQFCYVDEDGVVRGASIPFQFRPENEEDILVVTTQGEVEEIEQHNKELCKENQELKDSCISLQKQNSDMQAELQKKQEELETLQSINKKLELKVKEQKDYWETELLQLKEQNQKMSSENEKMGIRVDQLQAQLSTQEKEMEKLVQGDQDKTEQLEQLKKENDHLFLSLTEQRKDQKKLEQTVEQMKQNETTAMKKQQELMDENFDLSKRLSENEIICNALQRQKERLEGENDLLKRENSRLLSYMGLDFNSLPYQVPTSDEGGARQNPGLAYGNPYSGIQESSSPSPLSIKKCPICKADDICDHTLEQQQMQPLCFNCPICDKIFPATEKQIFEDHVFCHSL

For the molecule `Cc1ccc(C(=O)Nc2cccc(C(F)(F)F)c2)cc1Nc1nc(-c2cccnc2)nc2nn(C)cc12`, the ED50 in assay [1] is 0.506 µM; in assay [2], 0.0765 µM; in assay [3] it was 0.0227 µM; in assay [4] it was 0.0495 µM; in assay [5], 0.00599 µM; in assay [6] it was 32.7 µM. Besides, the ED50 in [7] stood at 4.43 µM.
Turning to `Cc1ccc(C(=O)Nc2cccc(C(F)(F)F)c2)cc1Nc1nc(-c2cccnc2)nc2c1cnn2C`, the ED50 in assay [8] worked out at 7.29 µM; in [9], 2.87 µM; in assay [10], 0.0911 µM; in assay [11], 0.00215 µM; in assay [12], 0.0482 µM; in assay [13], 6.77 µM. Moreover, the ED50 is 0.0639 µM in assay [14]; 0.932 µM in assay [15]; 0.00143 µM in assay [16]; 0.675 µM in [17]; 676 µM in [18]; 0.0118 µM in [19]. The ED50 was 0.115 µM in [20]; 15.3 µM in [21]; 12.8 µM in [22]; 7.69 µM in assay [23]; 0.887 µM in [24]; 3.43 µM in assay [25]. Also, the ED50 in assay [26] was 0.0229 µM; in assay [27], 0.0279 µM; in assay [28], 0.579 µM; in assay [29], 15.7 µM; in [30] it was 0.00163 µM; in assay [31], 12.2 µM. The ED50 in assay [32] stood at 0.00553 µM; in assay [33], 89.9 µM; in [34], 1590 µM; in assay [35], 6210 µM; in [36], 0.0299 µM; in assay [37], 17.6 µM. Moreover, the ED50 in assay [38] is 93.4 µM; in [39] it was 0.519 µM; in assay [40], 47.7 µM; in assay [41] it was 0.033 µM; in assay [42], 0.494 µM; in [43], 0.0415 µM. In addition, the ED50 in assay [44] was 0.000117 µM; in assay [45], 15.4 µM; in assay [46], 0.03 µM; in [47], 0.0685 µM; in assay [48], 8.64 µM.
